Results on seven molecules are retold here after patent US6642249B2, “Immunomodulating compounds” (Active Biotech AB, priority 2001, dated 2003).

The term IC50 denotes the concentration that inhibits the measured activity by half.

The experiment concerns the target T1, CD28-CD80 interactions (Homo sapiens, UniProt P33681).
T1 sequence (P33681 35-242 limits assumed): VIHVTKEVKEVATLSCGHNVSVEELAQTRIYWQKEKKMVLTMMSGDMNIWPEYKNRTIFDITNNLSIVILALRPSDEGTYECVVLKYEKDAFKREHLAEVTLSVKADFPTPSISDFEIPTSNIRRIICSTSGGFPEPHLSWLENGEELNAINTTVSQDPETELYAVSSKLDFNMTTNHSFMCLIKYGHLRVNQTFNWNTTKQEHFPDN
Kind of experiment: Time resolved fluorescence competition assay: CD28-CD80 interactions. The following applies: inhibition of CD28-mFc (5 nM) / CD80FabC215 (10 nM) interaction; representative results. Format: binding. As for the experimental part: Time resolved fluorescence competition assay protocol: CD28-CD80 interactions.
50 mM Tris-HCl, 150 mM NaCl, 0.05% Tween 20, pH 7.8, containing 0.1% BSA (w/v), added prior to use.
The substances to be tested for inhibitory effects were serially diluted from stock concentrations of 20 mM (DMSO) in assay buffer to preparation concentrations of 200, 100, 50 and 25 μM. The final concentration in the wells was 100, 50, 25 and 12.5 μM, respectively. The maximum final DMSO concentration tolerated in the assay was 0.5%. Where appropriate, the dilution series was adjusted and extended to measure the IC50.
CTLA4-hIg(Fc) was diluted to working concentrations of 20 nM and 2 nM, resulting in final concentrations of 10 nM and 1 nM in the well. At these concentrations (10 nM and 1 nM) approximately 90% and 30% inhibition levels were observed.
Preparation of Reagent Mixture
To a tube containing 1.1 ml assay buffer, the following reagents were added:
900 μl of the above reagent mixture was transferred to a new tube. CD80FabC215 was added at a preparation concentration of 20 nM, (i.e. 4.3 μl from 0.4 mg/ml stock). The final concentration in the well was 10 nM.
To the remaining 200 μl reagent mixture C215Fab was added as control for non-specific binding (NSB). 0.5 μl from a 0.36 mg/ml stock gave a preparation concentration of 20 nM and a final concentration in the well of 10 nM.
To a black, half area, 96-well microtiter plate, the C215Fab containing reagent mixture was transferred to column 12, row E-H (4 wells), 10 μl/well with a single channel electronic pipette. 10 μl/well of the CD80FabC215 containing reagent mixture was transferred with a single channel electronic pipette to all other wells on the plate
B0: Assay buffer, 10 μl/well was pipetted to the CD80FabC215 containing wells in column 12, row A-D (4 wells).
NSB: Assay buffer, 10 μl/well was pipetted to the C215Fab containing wells in column 12, row E-H (4 wells).
CTLA4-hIg(Fc), 10 μl/well of 20 and 2 nM (final conc 10 and 1 nM) was pipetted in duplicate into well 11 E-F and 11 G-H.
Sample dilution series: 10 μl/well in duplicate to the remaining wells.
The plate was covered with a plastic lid and incubated in the dark: Initially for 1 h on a shaker platform at room temperature (RTS), stationary at +4° C. overnight, and finally 1 h RTS before reading.
The plate was measured on a Victor 1420 Multilabel Counter using the LANCE protocol (#2) measuring emission at dual wavelengths, from both APC (665 nm) and Europium (615 nm). First measurement: Excitation 340 nm, emission 665 nm, delay 50 μs, window time 200 μs. Second measurement: Excitation 340 nm, emission 615 nm, delay 50 μs, window time 200 μs.
The fluorescence signal ratio 1000* 665 nm/615 nm, from which the percentage inhibition was calculated, was determined. A logit b plot (Logit b=LN (% Bound/(100% −% Bound, plotted against Log conc) was performed from which IC50 was measured.

For the molecule `O=C(O)c1ccc(-n2nc3c4ccccc4[nH]cc-3c2=O)cc1Cl` [2-Chloro-4-(3-oxo-3,5-dihydro-pyrazolo[4,3-c]quinolin-2-yl)-benzoic Acid], the IC50 came to 270 nM. In the case of `O=C(O)CNC(=O)c1ccc(-n2nc3c4ccccc4[nH]cc-3c2=O)cc1` [2-[4-(3-Oxo-3,5-dihydro-pyrazolo[4,3-c]quinolin-2-yl)-benzoylamino]-2-acetic Acid], the IC50 stood at 3900 nM. As to `O=C(O)c1cccc(-n2nc3c4ccccc4[nH]cc-3c2=O)c1` [3-(3-Oxo-3,5-dihydro-pyrazolo[4,3-c]quinolin-2-yl)-benzoic Acid], the IC50 turned out to be 880 nM. `O=C(O)c1ccc(-n2nc3c4ccccc4scc-3c2=O)cc1` [4-(3-Oxo-3H-thiochromeno[4,3-c]pyrazol-2-yl)benzoic Acid] returned a concentration for half-maximal inhibition (IC50) of 13500 nM.

With `O=C(O)c1ccc(-n2nc3c4ccccc4[nH]cc-3c2=O)cc1` [4-(3-oxo-3,5-dihydro-pyrazolo[4,3-c]quinolin-2-yl)-benzoic Acid], the IC50 was 480 nM.

Regarding `O=C(O)CCC(=O)Nc1ccc(-n2nc3c4ccccc4[nH]cc-3c2=O)cc1` [N-[4-(3-Oxo-3,5-dihydro-pyrazolo[4,3-c]quinolin-2-yl)-phenyl]-succinamic Acid], the IC50 was 600 nM. Then `O=C(O)CCc1ccc(-n2nc3c4ccccc4[nH]cc-3c2=O)cc1` [[4-(3-Oxo-3,5-dihydro-pyrazolo[4,3-c]quinolin-2-yl)-phenyl]-propionic Acid], with 1600 nM.
